This is an account of results in patent US20230131899A1, “INHIBITORS OF MICROBIALLY INDUCED AMYLOID” (Axial Therapeutics, Inc., priority 2020, published 2023).

Like-named read-outs stand apart in the source and are kept apart here.

The assay has as its system CsgA gene expression (csgBAC promoter-GFP reporter) in E. coli UTI89. Nature of the assay: In vitro live cell fluorescent reporter assay of CsgA transcription (Reporter Assay). The format is cell-based. The following applies: Escherichia coli. The method in brief:
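Compounds at 0.14–100 μM (1% DMSO final) incubated 20 h at 27 °C in YESCA broth with UTI89 carrying a single-copy GFP reporter under the csgBAC intergenic promoter region, inoculum OD600 0.003. Fluorescence normalized to vehicle wells gave IC50 and 50%-of-vehicle concentration; OD600 reduction >10% flagged growth impact.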

Where [1] appears, read: read-out: Reporter Assay Abs IC50 (activity range), median Abs IC50 in the CsgA reporter assay, class symbol.
Setting [2] is: read-out: Reporter Assay Abs IC50 (μM), median Abs IC50 in the CsgA reporter assay, N/A = maximum expression reduction is <50% of control.

As for `O=C(O)C1CN(CCCCO)S(=O)(=O)c2c(-c3cccc(C(F)(F)F)c3)c(Cc3cccc4ccccc34)c(NC3CCCC3)c(=O)n21` (centres unmarked) [Compound 121, 7-(cyclopentylamino)-2-(4-hydroxybutyl)-8-(naphthalen-1-ylmethyl)-6-oxo-9-(3-(trifluoromethyl)phenyl)-3,4-dihydro-2H,6H-pyrido[1,2-e][1,2,5]thiadiazine-4-carboxylic acid 1,1-dioxide], the IC50 (commonly the midpoint of a concentration-inhibition curve) is 1.3 to 4.5 µM under setting [1] and 2 µM under setting [2].
Take `O=C(O)C1C[S+]([O-])c2c(-c3cccc(C(F)(F)F)c3)c(Cc3cccc4ccccc34)cc(=O)n21` (racemic) [Compound 027b, 7-(naphthalen-1-ylmethyl)-5-oxo-8-(3-(trifluoromethyl)phenyl)-2,3-dihydro-5H-thiazolo[3,2-a]pyridine-3-carboxylic acid 1-oxide]: the IC50 runs as follows: under setting [1], greater than 10 µM; under setting [2], 77.5 µM.
For `O=C(O)C1CSc2c(-c3cccc(C(F)(F)F)c3)c(Cc3cccc4ccccc34)cc(=O)n21` (racemic) [Compound 011, 7-(naphthalen-1-ylmethyl)-5-oxo-8-(3-(trifluoromethyl)phenyl)-2,3-dihydro-5H-thiazolo[3,2-a]pyridine-3-carboxylic acid], the IC50 runs as follows: under setting [1], 4.6 to 10 µM; under setting [2], 5.8 µM.
In the same order, the values of `C=CCCN1CC(C(=O)O)n2c(c(-c3cccc(C(F)(F)F)c3)c(Cc3cccc4ccccc34)cc2=O)S1(=O)=O` (centres unmarked) [Compound 024, 2-(but-3-en-1-yl)-8-(naphthalen-1-ylmethyl)-6-oxo-9-(3-(trifluoromethyl)phenyl)-3,4-dihydro-2H,6H-pyrido[1,2-e][1,2,5]thiadiazine-4-carboxylic acid 1,1-dioxide] are 4.6 to 10 µM and 9.9 µM.
In the same order, the values of `O=C(O)C1CSc2c(-c3cccc(C(F)(F)F)c3)c(Cc3cccc4ccccc34)nc(=O)n21` (centres unmarked) [Compound 022, 7-(naphthalen-1-ylmethyl)-5-oxo-8-(3-(trifluoromethyl)phenyl)-2,3-dihydro-5H-thiazolo[3,2-c]pyrimidine-3-carboxylic acid] are 1.3 to 4.5 µM and 4.1 µM.
Turning to `CCCN1CC(C(=O)O)n2c(c(-c3cccc(C(F)(F)F)c3)c(Cc3cccc4ccccc34)c(NC3CCCC3)c2=O)S1(=O)=O` (centres unmarked) [Compound 126, 7-(cyclopentylamino)-8-(naphthalen-1-ylmethyl)-6-oxo-2-propyl-9-(3-(trifluoromethyl)phenyl)-3,4-dihydro-2H,6H-pyrido[1,2-e][1,2,5]thiadiazine-4-carboxylic acid 1,1-dioxide], the half-inhibitory concentration (IC50) under setting [1] fell in the range of 1.3 to 4.5 µM and the IC50 under setting [2] was 1.9 µM.
Turning to `Nc1c(Cc2cccc3ccccc23)c(-c2cccc(C(F)(F)F)c2)c2n(c1=O)C(C(=O)O)CS2` (racemic) [Compound 020, 6-amino-7-(naphthalen-1-ylmethyl)-5-oxo-8-(3-(trifluoromethyl)phenyl)-2,3-dihydro-5H-thiazolo[3,2-a]pyridine-3-carboxylic acid], the IC50 is 1.3 to 4.5 µM under setting [1] and 3.9 µM under setting [2].
